The record followed here is patent publication US5760036A, “Aminediol protease inhibitors” (E. R. Squibb & Sons, Inc., priority 1995, dated 1998).

Structures are written as SMILES. Structures can show the parent of a compound that is named as a salt. Where two headings read alike, the source gives them in different places.

One assay deals with T1, HIV protease (Human immunodeficiency virus type 1 group M subtype B, UniProt P04585).
T1 construct: and purified protease
Nature of the assay: HIV Protease Assay. Format: biochemical. The method in brief:
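Purified protease cleaved 450 μM octapeptide substrate in 50 mM sodium acetate pH 5.5 with 100 μg/ml BSA for 30 minutes at 37° C; product analyzed by reverse-phase HPLC at UV220 after H3PO4 quench. Inhibitors tested at final 10 μM with 4% DMSO.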

Assay [1] concerns RF strain of HIV (CEM-SS cells). Kind of assay: Cell Culture Anti-HIV Activity (cell viability, formazan). Format: cell-based. Conditions: Human immunodeficiency virus 1, CEM-SS, 144 h, CEM-SS cells, RF strain of HIV, multiplicity of infection 0.04, 6 days at 37° C., 450 nm; read-out: HIV (CEM Cells) IC50. In short, it runs like this: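 CEM-SS cells (5000/well) infected with HIV RF at MOI 0.04, exposed to half-log serial compound dilutions, incubated 6 days at 37° C. Viability read by tetrazolium reduction to formazan, absorbance 450 nm. IC50 is the concentration raising formazan in infected cells to 50% of uninfected, drug-free cells.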

The mark [2] stands for this setting: pH 5.5, 10 μM inhibitor, 4% DMSO, 450 μM substrate, pH 5.5, 30 minutes at 37° C., RP-HPLC, read-out: HIV Protease % Inhibition at 10 μM.
Where [3] appears, read: pH 5.5, read-out: HIV Protease % Inhibition at 10 μM.

As for `CC(C)C(NC(=O)OCc1ccccc1)C(=O)NC(Cc1ccccc1)C(O)CNCC(O)C(Cc1ccccc1)NC(=O)C(NC(=O)OCc1ccccc1)C(C)C` [Compound 82, [S-[1R*,2R*(2S*,3R*)]]-N-[2-Hydroxy-3-[[2-hydroxy-4-phenyl-3-[[[N-(phenylmethoxy)carbonyl]-L-valyl]amino]butyl]amino]-1-(phenylmethyl)propyl]-N-^2-[(phenylmethoxy)carbonyl]-L-valinamide], at HIV protease (setting [2]), the inhibition at 10 µM stood at 94%. The IC50 in assay [1] was > 3000 nM.

In the case of `CC(C)(C)OC(=O)N[C@@H](Cc1ccccc1)[C@H](O)CNC[C@@H](O)[C@H](Cc1ccccc1)NC(=O)COc1ccccc1` (relative stereo) [Compound 72, 1S-[1R*,2S*(2S*,3R*)]]-[2-Hydroxy-3-[[2-hydroxy-3-[(phenoxyacetyl)amino]-4-phenylbutyl]amino]-1-(phenylmethyl)propyl]carbamic acid, 1,1-dimethylethylester], the inhibition at 10 µM at HIV protease (setting [2]) was 51%. Also, the IC50 in assay [1] was > 3200 nM.

Take `COCCOc1ccc(C[C@H](NC(=O)OC(C)(C)CO)[C@H](O)CNC[C@@H](O)[C@H](Cc2ccccc2)NC(=O)OC(C)(C)C)cc1` [Compound 283, [1S-[1R*,2S*(2S*,3R*)]]-[3-[[3-[[(1,1-Dimethylethoxy)carbonyl]amino]-2-hydroxy-4-phenylbutyl]amino]-2-hydroxy-1-8 [4-(2-methoxyethoxy)phenyl]methyl]propyl]carbamic acid, 2-hydroxy-1,1-dimethylethyl ester]: the inhibition at 10 µM at HIV protease (setting [2]) turned out to be 100%. Moreover, in assay [1], the IC50 was 110 nM.

On to `CC(C)[C@H](NC(=O)[C@@H](N)Cc1ccccc1)C(=O)N[C@@H](Cc1ccccc1)[C@H](O)CNC[C@@H](O)[C@H](Cc1ccccc1)NC(=O)[C@@H](NC(=O)[C@@H](N)Cc1ccccc1)C(C)C` [Compound 92, [S-(1R*,2S*)]-N,N'-[Iminobis[2-hydroxy-1-(phenylmethyl)-3,1-propanediyl]bis[N^2-(L-phenylalanyl)-L-valinamide[,trihydrochloride], for which, on HIV protease (setting [2]), the inhibition at 10 µM worked out at 100%. The half-maximal inhibitory concentration (IC50) in assay [1] amounted to 39000 nM.

As for `CC(C)(CO)OC(=O)N[C@@H](Cc1ccccc1)[C@H](O)CNC[C@@H](O)[C@H](Cc1ccccc1)NC(=O)OC(C)(C)CO` [Compound 165, [R-(R*,S*)]-[Iminobis[2-hydroxy-1-(phenylmethyl)-3,1-propanediyl)biscarbamic acid, bis(2-hydroxy-1,1-dimethylethyl) ester], the inhibition at 10 µM at HIV protease (setting [2]) was determined as 100%. In assay [1], the concentration for half-maximal inhibition (IC50) amounted to 620 nM.

Regarding `CC(C)(C)OC(=O)N[C@@H](C/C=C/c1ccc(OCC(=O)N2CCOCC2)cc1)[C@H](O)CNC[C@@H](O)[C@H](Cc1ccccc1)NC(=O)OC(C)(C)C` [Compound 276, [1S-[1R*,2S*(2S*,3R*)]]-[3-[[3-[[(1,1-Dimethylethoxy)carbonyl]amino]-2-hydroxy-6-[4-[2-(4-morpholinyl)-2-oxoethoxy]phenyl]-5-hexenyl]amino]-2-hydroxy-1-(phenylmethyl)propyl]carbamic acid, 1,1-dimethylethyl ester], the inhibition at 10 µM on HIV protease (setting [2]) was 97%. For the same molecule, in assay [1], the 50% inhibitory concentration (IC50) was 130 nM.

Consider `CC(C)(C)OC(=O)N[C@@H](Cc1ccccc1)[C@H](O)CNC[C@@H](O)[C@H](Cc1ccccc1)NC(=O)OC1(C)CCOC1` (stereo partly drawn) [Compound 314, [1S-(1R*,2S*)]-[Iminobis[2-hydroxy-1-(phenylmethyl)-3,1-propanediyl]]bis[carbamic acid], 1,1-dimethylethyl-3-methyl-3-tetrahydrofuranyl ester], for which the inhibition at 10 µM on HIV protease (setting [2]) was 100%. The IC50 in assay [1] stood at 120 nM.

For `CC(C)[C@H](NC(=O)OCc1ccc(-c2ccccc2)cc1)C(=O)N[C@@H](Cc1ccccc1)[C@H](O)CNC[C@@H](O)[C@H](Cc1ccccc1)NC(=O)OC(C)(C)C` [Compound 68, [S-[1R*,2S*(2S*,3R*)]]-N^2-[([1,1-Biphenyl]-4-ylmethoxy]carbonyl-N-[3-[[3-[[(1,1-dimethylethoxy)carbonyl]amino]-2-hydroxy-4-phenylbutyl]amino]-2-hydroxy-l-(phenylmethyl)[propyl]-L-valinamide], at HIV protease (setting [2]), the inhibition at 10 µM was found to be 99%. Besides, the concentration for half-maximal inhibition (IC50) in assay [1] was 110 nM.

Take `CC(C)[C@H](NC(=O)CC(N)c1ccccc1)C(=O)N[C@@H](Cc1ccccc1)[C@H](O)CNC[C@@H](O)[C@H](Cc1ccccc1)NC(=O)OC(C)(C)C` (stereo partly drawn) [Compound 86, [S-[1R*,2S*(2S*,3R*)]-N^2 (3-Amino-1-oxo-3-phenylpropyl)-N-[3-[[3-[[(1,1-dimethylethoxy)carbonyl]amino]-2-hydroxy-4-phenylbutyl]amino-[-2-hydroxy-1-(-phenylmethyl)propyl]-L-valinamide, fumarate (2:3) salt]: on HIV protease (setting [2]), the inhibition at 10 µM worked out at 78%. Moreover, in assay [1], the half-maximal inhibitory concentration (IC50) worked out at 1800 nM.

For the molecule `CC(C)(C)OC(=O)N[C@@H](Cc1ccccc1)[C@H](O)CNC[C@@H](O)[C@H](Cc1ccc(OCCCc2nc3ccccc3o2)cc1)NC(=O)OC(C)(C)C` [Compound 244, [1S-[1R*,2S*(2S*,3R*)]]-[3-[[3-[[(1,1-Dimethylethoxy)carbonyl]amino]-2-hydroxy-4-[4-[3-[(2-benzoxazolyl)-propoxy]phenyl]butyl]amino]-2-hydroxy-1-(phenylmethyl)propyl]carbamic acid, 1,1-dimethylethyl ester], the inhibition at 10 µM on HIV protease (setting [2]) came to 100%. The half-inhibitory concentration (IC50) in assay [1] amounted to 1500 nM.

For the molecule `CC(C)(C)OC(=O)N[C@@H](Cc1ccccc1)[C@H](O)CNC[C@@H](O)[C@H](CC1CCCCC1)NC(=O)OC(C)(C)C` [Compound 15, [1S-[1R*,2S*(2S*,3R*)]]-[3-[[4-Cyclohexyl-3-[[(1,1-dimethylethoxy)carbonyl]-amino]-2-hydroxybutyl]amino-2-hydroxy-1-(phenylmethyl)propyl]carbamic acid, 1,1-dimethylethyl ester], the inhibition at 10 µM on HIV protease (setting [2]) worked out at 98%. In addition, in assay [1], the IC50 was 380 nM.

For `CC(C)(C)OC(=O)N[C@@H](Cc1ccccc1)[C@H](O)CNC[C@@H](O)[C@H](Cc1ccccc1)NC(=O)[C@](C)(O)c1ccccc1` [Compound 353, [1S-[1R*,2S*[2S*,3R*(S*)]]]-[3-[[3-[(2-Hydroxy-1-oxo-2-phenylpropyl)amino]-2-hydroxy-4-phenylbutyl]amino]-2-hydroxy-l-(phenylmethyl)propyl]carbamic acid, 1,1-dimethylethyl ester], on HIV protease (setting [3]), the inhibition at 10 µM amounted to 98%. For the same molecule, the half-inhibitory concentration (IC50) in assay [1] was 1100 nM.

For `COC(=O)N[C@H](C(=O)N[C@@H](Cc1ccccc1)[C@H](O)CNC[C@@H](O)[C@H](Cc1ccc(OCCc2ccccn2)cc1)NC(=O)OC(C)(C)C)C(C)(C)C` (relative stereo) [Compound 327, [1R*,2S*(2S*,3R*)-N-[3-[[3-[[(1,1-Dimethylethoxy)carbonyl]amino]-2-hydroxy-4-[4-[2-(2-pyridinyl)ethoxyl]phenyl]butyl]amino]-2-hydroxy-1-(phenylmethyl)propyl]-N^2-(methoxycarbonyl)-3-methyl-L-valinamide], the inhibition at 10 µM at HIV protease (setting [2]) came out at 99%. Besides, in assay [1], the concentration for half-maximal inhibition (IC50) is 50 nM.

On to `CC(C)(C)OC(=O)N[C@@H](Cc1ccccc1)[C@H](O)CNC[C@@H](O)[C@H](Cc1ccccc1)NC(=O)[C@@H](NC(=O)OCc1ncc(-c2ccccc2)o1)C(C)(C)C` [Compound 347, [S-(1R*,2S*(2S*,3R*)]]-[2,2-Dimethyl-1-[[[3-[[3-[[1,1-dimethylethoxy)-carbonyl]amino]-2-hydroxy-4-phenylbutyl]amino]-2-hydroxy-1-(phenylmethyl)propyl]amino]carbonyl]-propyl]carbamic acid, (5-phenyl-2-oxazolyl)methyl ester], for which the inhibition at 10 µM on HIV protease (setting [2]) amounted to 99%. For the same molecule, in assay [1], the IC50 came to 50 nM.

As to `CC(C)(C)OC(=O)N[C@@H](Cc1ccccc1)[C@H](O)CNC[C@@H](O)[C@H](Cc1ccc(OCC(O)c2cccnc2)cc1)NC(=O)OC(C)(C)C` (single isomer, unassigned; isomer a) [Compound 355, [1S-[1R*,2S* (2S*,3R*)]]-[3-[[3-[[(1,1-Dimethylethoxy)carbonyl]amino]-2-hydroxy-4-[4-[2-hydroxy-2-(3-pyridinyl)ethoxy]phenyl]-butyl]amino]-2-hydroxy-1-(phenylmethyl)-propyl]-carbamic acid, 1,1-dimethylethyl ester, Isomer A], the inhibition at 10 µM at HIV protease (setting [3]) worked out at 99%. For the same molecule, the IC50 in assay [1] came to 70 nM.

For `CC(C)(C)OC(=O)N[C@@H](Cc1ccccc1)[C@H](O)CNC[C@@H](O)[C@H](Cc1ccccc1)NC(=O)OC1c2ccccc2CC1O` (stereo partly drawn) [Compound 148, [1S-(1R*, 2S*)]-[Iminobis[2-hydroxy-1-(phenylmethyl)-3,1-propanediyl)]biscarbamic acid, 1,1-dimethylethyl 2,3-dihydro-2-hydroxy-1H-inden-1-yl ester], the “HIV Protease % Inhibition at 10 μM” value on HIV protease (10 μM inhibitor, 4% DMSO, 450 μM substrate, pH 5.5, 30 minutes at 37° C., RP-HPLC) worked out at 88%. The IC50 in assay [1] came out at 2000 nM.

On to `CC(C)(C)OC(=O)N[C@@H](Cc1ccc(OCCc2ccccn2)cc1)[C@H](O)CNC[C@@H](O)[C@H](Cc1ccccc1)NC(=O)OC(C)(C)CO` [Compound 298, [1S-[1R*,2S*(2S*,3R*)]]-[2 Hydroxy-3-[[2-hydroxy-3-[[(2-hydroxy-1,1-dimethylethoxy)carbonyl]amino]-4-phenylbutyl]amino]-1-[[4-[2-(2-pyridinyl)ethoxy]phenyl]methyl]propyl]carbamic acid, 1,1-dimethylethyl ester], for which the inhibition at 10 µM on HIV protease (setting [2]) was 100%. For the same molecule, the half-inhibitory concentration (IC50) in assay [1] worked out at 60 nM.
